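A five-concentration, 48-hour dose response in 96-well plates underlies each endpoint, interpolated linearly between surrounding concentrations. At the GI50, growth is halved. At the TGI there is no net growth.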
Key:
Assay in all cases: DTP human tumour cell line panel, 48 h
[1] = system: HCC-2998 colon
[2] = system: IGROV1 ovarian
[3] = system: OVCAR-5 ovarian
[4] = system: MDA-MB-435
[5] = system: RXF 393 renal
[6] = system: UACC-257 melanoma
[7] = system: SK-MEL-5 melanoma
[8] = system: TK-10 renal
[9] = system: HT29 colon
[10] = system: MDA-MB-231 breast
[11] = system: T-47D breast
[12] = system: COLO 205 colon
[13] = system: MCF7 breast
[14] = system: NCI-H460 lung
[15] = system: SK-MEL-28 melanoma
[16] = system: HOP-62 NSCLC
[17] = system: PC-3 prostate
[18] = system: A549 NSCLC
[19] = system: EKVX NSCLC
[20] = system: SF-295 CNS
[21] = system: NCI-H226 lung
[22] = system: CAKI-1 renal
[23] = system: SNB-19 CNS
[24] = system: DU-145 prostate
[25] = system: NCI-H522 lung
[26] = system: UO-31 renal
[27] = system: ACHN renal
[28] = system: SW-620 colon
[29] = system: OVCAR-8 ovarian
[30] = system: OVCAR-4 ovarian
[31] = system: U251 CNS
[32] = system: SF-539 CNS
[33] = system: SNB-75 CNS
[34] = system: MOLT-4 leukemia
[35] = system: A498 renal
[36] = system: KM12 colon
[37] = system: SN12C renal
[38] = system: K-562 leukemia
[39] = system: SR leukemia
[40] = system: HL-60(TB) leukemia
[41] = system: HS 578T breast
[42] = system: HCT-15 colon
[43] = system: BT-549 breast
[44] = system: NCI-H23 lung
[45] = system: M14 melanoma
[46] = system: HOP-92 NSCLC
[47] = system: SF-268 CNS
[48] = system: 786-0 renal
[49] = system: OVCAR-3 ovarian
[50] = system: SK-MEL-2 melanoma
[51] = system: NCI/ADR-RES ovarian
[52] = system: SK-OV-3 ovarian
[53] = system: MALME-3M melanoma
[54] = system: LOX IMVI melanoma
[55] = system: CCRF-CEM leukemia
[56] = system: HCT-116 colon
[57] = system: UACC-62 melanoma
[58] = system: RPMI-8226 leukemia

`N#C/C(=C\c1cccc2cnccc12)N1N=NC2C=CC=CC21` (configuration not stated) was tested, and the GI50 [1] was 4.32 µM, the TGI [1] was > 100 µM and the GI50 [2] was 2.7 µM. The TGI [2] was > 100 µM, the GI50 [3] was 4.66 µM and the TGI [3] was > 100 µM. The GI50 [4] was 2.87 µM, the TGI [4] was > 100 µM and the GI50 [5] was 2.35 µM. For the same compound, the TGI [5] was 6.97 µM, the GI50 [6] was 4.54 µM and the TGI [6] was > 100 µM. The GI50 [7] was 3.19 µM, the TGI [7] was > 100 µM and the GI50 [8] was 3.98 µM. The TGI [8] was 26.3 µM, the GI50 [9] was 3.5 µM and the TGI [9] was > 100 µM. It also gave a GI50 [10] of 1.94 µM, a TGI [10] of 8.05 µM and a GI50 [11] of 0.582 µM. For the same compound, the TGI [11] was 6.4 µM, the GI50 [12] was 3.48 µM and the TGI [12] was > 100 µM. For the same compound, the GI50 [13] was 0.557 µM, the TGI [13] was > 100 µM and the GI50 [14] was 3.98 µM. For the same compound, the TGI [14] was 32.7 µM, the GI50 [15] was 4.1 µM and the TGI [15] was > 100 µM. The GI50 [16] was 2.95 µM, the TGI [16] was 46.1 µM and the GI50 [17] was 2.76 µM. The TGI [17] was > 100 µM, the GI50 [18] was 3.02 µM and the TGI [18] was > 100 µM. For the same compound, the GI50 [19] was 2.63 µM, the TGI [19] was > 100 µM and the GI50 [20] was 32.4 µM. The TGI [20] was > 100 µM, the GI50 [21] was 3.95 µM and the TGI [21] was > 100 µM. The GI50 [22] was 1.7 µM, the TGI [22] was > 100 µM and the GI50 [23] was 6.29 µM. The TGI [23] was > 100 µM, the GI50 [24] was 3.55 µM and the TGI [24] was > 100 µM. For the same compound, the GI50 [25] was 2 µM, the TGI [25] was > 100 µM and the GI50 [26] was 0.602 µM. The TGI [26] was > 100 µM, the GI50 [27] was 2.5 µM and the TGI [27] was > 100 µM. The GI50 [28] was 3.35 µM, the TGI [28] was > 100 µM and the GI50 [29] was 3.32 µM. The TGI [29] was > 100 µM, the GI50 [30] was 2.92 µM and the TGI [30] was > 100 µM. For the same compound, the GI50 [31] was 3.88 µM, the TGI [31] was > 100 µM and the GI50 [32] was 2.65 µM. For the same compound, the TGI [32] was 9.23 µM, the GI50 [33] was 0.184 µM and the TGI [33] was 3.61 µM. For the same compound, the GI50 [34] was 3.21 µM, the TGI [34] was > 100 µM and the GI50 [35] was 1.63 µM. For the same compound, the TGI [35] was 5.59 µM, the GI50 [36] was 2.96 µM and the TGI [36] was 32 µM. The GI50 [37] was 3.24 µM, the TGI [37] was > 100 µM and the GI50 [38] was 2.85 µM. For the same compound, the TGI [38] was > 100 µM, the GI50 [39] was 2.53 µM and the TGI [39] was > 100 µM. For the same compound, the GI50 [40] was 3 µM, the TGI [40] was 24.3 µM and the GI50 [41] was 2.46 µM. For the same compound, the TGI [41] was 9.16 µM, the GI50 [42] was 1.74 µM and the TGI [42] was > 100 µM. For the same compound, the GI50 [43] was 2.97 µM, the TGI [43] was > 100 µM and the GI50 [44] was 3.27 µM. The TGI [44] was > 100 µM, the GI50 [45] was 7.71 µM and the TGI [45] was > 100 µM. The GI50 [46] was 0.532 µM, the TGI [46] was 5.13 µM and the GI50 [47] was 3.06 µM. For the same compound, the TGI [47] was > 100 µM, the GI50 [48] was 3.33 µM and the TGI [48] was > 100 µM. It also gave a GI50 [49] of 1.91 µM, a TGI [49] of 4.88 µM and a GI50 [50] of 4.49 µM. For the same compound, the TGI [50] was > 100 µM, the GI50 [51] was 3.53 µM and the TGI [51] was > 100 µM. For the same compound, the GI50 [52] was 2.08 µM, the TGI [52] was 25.9 µM and the GI50 [53] was 3.24 µM. For the same compound, the TGI [53] was > 100 µM, the GI50 [54] was 3.01 µM and the TGI [54] was > 100 µM.

In the case of `CNCCCn1c2c(c3ccc(F)cc3c1=O)C(=O)c1cc(OC)cnc1-2`, the GI50 [1] is reported as 1.15 µM, the TGI [1] is reported as 4.17 µM and the GI50 [2] is reported as 0.32 µM. For the same compound, the TGI [2] was 4.11 µM, the GI50 [3] was 0.352 µM and the TGI [3] was 1.87 µM. It also gave a GI50 [4] of 0.471 µM, a TGI [4] of 1.81 µM and a GI50 [5] of 0.316 µM. The TGI [5] was 1.38 µM, the GI50 [6] was 0.485 µM and the TGI [6] was 1.9 µM. For the same compound, the GI50 [7] was 0.307 µM, the TGI [7] was 1.08 µM and the GI50 [8] was 0.332 µM. For the same compound, the TGI [8] was 1.79 µM, the GI50 [9] was 0.145 µM and the TGI [9] was 0.624 µM. For the same compound, the GI50 [10] was 0.7 µM, the TGI [10] was 2.38 µM and the GI50 [11] was 0.16 µM. The TGI [11] was 0.704 µM, the GI50 [55] was 0.255 µM and the TGI [55] was 10.6 µM. The GI50 [12] was 0.0722 µM, the TGI [12] was 1.14 µM and the GI50 [13] was 0.0344 µM. It also gave a TGI [13] of 3.43 µM, a GI50 [14] of 0.0492 µM and a TGI [14] of 0.261 µM. It also gave a GI50 [15] of 1.44 µM, a TGI [15] of 3.94 µM and a GI50 [16] of 0.142 µM. It also gave a TGI [16] of 0.42 µM, a GI50 [17] of 0.37 µM and a TGI [17] of 8.1 µM. It also gave a GI50 [18] of 0.105 µM, a TGI [18] of 0.288 µM and a GI50 [19] of 0.301 µM. For the same compound, the TGI [19] was 1.96 µM, the GI50 [20] was 0.185 µM and the TGI [20] was 0.78 µM. The GI50 [21] was 0.163 µM, the TGI [21] was 0.356 µM and the GI50 [23] was 0.216 µM. The TGI [23] was 1.78 µM, the GI50 [24] was 0.202 µM and the TGI [24] was 1.12 µM. For the same compound, the GI50 [25] was 0.0569 µM, the TGI [25] was 1.08 µM and the GI50 [26] was 0.13 µM. It also gave a TGI [26] of 0.809 µM, a GI50 [27] of 0.117 µM and a TGI [27] of 0.362 µM. The GI50 [28] was 0.184 µM, the TGI [28] was 2.03 µM and the GI50 [29] was 0.193 µM. The TGI [29] was 1.12 µM, the GI50 [30] was 0.421 µM and the TGI [30] was 10.5 µM. The GI50 [31] was 0.11 µM, the TGI [31] was 0.46 µM and the GI50 [32] was 0.368 µM. The TGI [32] was 1.36 µM, the GI50 [33] was 0.252 µM and the TGI [33] was 3.28 µM. For the same compound, the GI50 [34] was 0.0379 µM, the TGI [34] was 0.318 µM and the GI50 [35] was 0.369 µM. It also gave a TGI [35] of 1.61 µM, a GI50 [36] of 0.242 µM and a TGI [36] of 1.48 µM. For the same compound, the GI50 [37] was 0.211 µM, the TGI [37] was 1.34 µM and the GI50 [38] was 0.172 µM. The TGI [38] was 1.92 µM, the GI50 [39] was 0.12 µM and the TGI [39] was 1.13 µM. The GI50 [56] was 0.143 µM, the TGI [56] was 0.617 µM and the GI50 [40] was 0.221 µM. For the same compound, the TGI [40] was 0.753 µM, the GI50 [41] was 2.24 µM and the TGI [41] was 16.2 µM. The GI50 [42] was 0.25 µM, the TGI [42] was 3.86 µM and the GI50 [43] was 0.577 µM. The TGI [43] was 4.84 µM, the GI50 [44] was 0.312 µM and the TGI [44] was 1.97 µM. The GI50 [45] was 0.308 µM, the TGI [45] was 1.63 µM and the GI50 [46] was 0.371 µM. It also gave a TGI [46] of 3.15 µM, a GI50 [47] of 0.379 µM and a TGI [47] of 3.55 µM. It also gave a GI50 [48] of 0.195 µM, a TGI [48] of 0.658 µM and a GI50 [49] of 0.263 µM. It also gave a TGI [49] of 1.39 µM, a GI50 [50] of 1.6 µM and a TGI [50] of 7.37 µM. It also gave a GI50 [51] of 0.431 µM, a TGI [51] of 9.51 µM and a GI50 [52] of 0.228 µM. The TGI [52] was 0.674 µM, the GI50 [53] was 0.318 µM and the TGI [53] was 1.55 µM. It also gave a GI50 [57] of 0.608 µM, a TGI [57] of 2.68 µM and a GI50 [58] of 0.203 µM. For the same compound, the TGI [58] was 0.912 µM, the GI50 [54] was 0.142 µM and the TGI [54] was 0.375 µM.
